Experimental data: patent publication EP4238581A1, “TARGETED DELIVERY OF OLIGONUCLEOTIDES INTO EUKARYOTIC CELLS USING HYBRID MALTOSE/CYCLODEXTRIN POLYPLEXES” (Technische Universität Dresden e. V., priority 2022, dated 2023)

System: 293T-PSCA cells
Assay: Endocytosis inhibitors and GFP transfection by scFv(AM1)-P-BAP hybrid polyplexes
Type: cell-based
Details: cells transfected with scFv(AM1)-P-BAP hybrid polyplexes loaded with MC encoding GFP; inhibitor concentration not given
Source text: To investigate if a receptor-mediated endocytosis contributes to uptake of scFv-P-BAP hybrid polyplexes clathrin-dependent and clathrin-independent endocytosis was blocked using chlorpromazine and filipin III.

Row | Structure (SMILES) | fraction of GFP-positive 293T-PSCA cells
1 | CCCCC[C@@H](O)[C@H]1C(=O)O[C@H](C)[C@@H](O)/C=C/C=C/C=C/C=C/C=C(\C)[C@@H](O)C[C@H](O)C[C@H](O)C[C@H](O)C[C@H](O)C[C@H](O)C[C@@H]1O [filipin III] | significant decrease
2 | CN(C)CCCN1c2ccccc2Sc2ccc(Cl)cc21 [chlorpromazine] | significant decrease
